Work on `C[C@H](CO)Nc1nc(SCc2ccno2)nc2nc(N)sc12` [Example 9, (2R)-2-[[2-Amino-5-[(5-isoxazolylmethyl)thio]thiazolo[4,5-d]pyrimidin-7-yl]amino]-1-propanol] yielded a melting point of 183 to 185 °C.

`Cc1nc(CSc2nc(NC(C)(C)CO)c3sc(N)nc3n2)cs1` [Example 11, 2-[[2-Amino-5-[[(2-methyl-4-thiazolyl)methyl]thio]thiazolo[4,5-d]pyrimidin-7-yl]amino]-2-methyl-1-propanol] gave a melting point of 250 to 252 °C.

For `Cc1nc(CSc2nc(NC(CO)CO)c3sc(N)nc3n2)cs1` [Example 10, 2-[[2-Amino-5-[[(2-methyl-4-thiazolyl)methyl]thio]thiazolo[4,5-d]pyrimidin-7-yl]amino]-1,3-propanediol], the melting point was 158 to 160 °C.

— patent US6958343B2, “Thiazolopyrimidines and their use as modulators of chemokine receptor activity” (AstraZeneca, AB, priority 2000, dated 2005)
